The results in this text go back to patent US9000015B2, “Compounds for the treatment of addiction” (Gilead Sciences, Inc., priority 2011, dated 2015).

Molecules are shown by their SMILES. pIC50: −log10 of the molar value.

For orientation: pIC50 means −log10 of the IC50, conventionally taken in molar units.

Assay [1] concerns the target HMAO-B (Homo sapiens (Human), UniProt P27338). Description: MAO-B assay (luminogenic MAO substrate). The assay is classed as biochemical. The conditions noted are these: microsome MAO-B, 16 uM substrate. The protocol: (§1) MAO assays included luminogenic MAO substrate, reaction buffers, Luciferin Detection and the reconstitution buffer with eserase. Standard MAO reaction mixtures included microsome contained MAO-A (2 ug) or MAO-B (10 ug), 160 uM substrate for MAO-A or 16 uM substrate for MAO-B, MAO-A buffer (100 mM Hepes buffer, pH 7.5, 5% glycerol) or MAO-B buffer (100 mM Hepes, pH 7.5, 5% glycerol, 10% dimethyl sulfoxide) in a final volume of 30 ul. After 20 minutes of pre-incubation of the enzyme with compounds, the reaction was initiated by adding enzyme substrate and the reaction was allowed to proceed for 60 minutes. Reconstituted Luciferin Detection Reagent (30 ul) was then added is added to simultaneously stop the MAO reaction and convert the methyl ester derivative to luciferin and produce light. The amount of light produced is directly proportional to the activity of MAO. The mixtures were further incubated for 20 minutes and activity of the enzyme was determined using Perkin-Elmer Envision Reader.
(§2) Note: […] refers to the concentration of a compound that inhibits a reaction by 50%. In the case of competitive inhibition, IC50=2Ki when the substrate is present at the Km concentration, as per the relationship: Ki=IC50/[1+(substrate concentration/Km)].

The target of assay [2] is HMAO-A (Homo sapiens (Human), UniProt P21397). Description: MAO-A assay (luminogenic MAO substrate). The conditions noted are these: microsome MAO-A, 160 uM substrate. The class given is biochemical. On the procedure: as §1, §2
Assay [3] has as its target recombinant human ALDH2 (Homo sapiens (Human), UniProt P05091). Description: ALDH2 assay (NADH formation). The assay is classed as biochemical. As to conditions: 60 min pre-incubation, 150 uM formaldehyde, 2.5 mM NAD+; read-out: IC50 HALDH2. On the procedure: Standard ALDH2 reaction mixtures contained 150 uM formaldehyde, 2.5 mM NAD^+, 10 mM MgCl2 and 10 nM recombinant human ALDH2 in 50 mM Hepes buffer, pH 7.4, 0.01% Tween 20 in a final volume of 50 ul using 384-well plates. After 60 min of pre-incubation of compound with ALDH2 and formaldehyde, the reaction was started by adding NAD+ and the reaction mixture was allowed to proceed for 90 minutes. Activity of the enzyme was determined by monitoring NADH formation using Perkin-Elmer Envision Reader with excitation and emission wavelengths set at 340 and 460 nm, respectively.
as §2

In assay [4] the test system is Male SD rats. Nature of the assay: Rat nicotine self administration, acute treatment. The assay is classed as in vivo. The conditions noted are these: 1 hr before session. On the procedure:
Male SD rats were trained to self administer i.v. nicotine (0.03 mg/kg/inj) daily (Monday to Friday) in standard operant chambers with retractable levers (MED Associates, Inc) as previously published (Levin et al., 2003; Levin et al., 2007). During the daily 45 min session, rats received 0.05 ml infusion of 0.03 mg/kg/infusion of nicotine every time the active lever was pressed. A cue light and tone turned on for 0.5 sec together with the activation of a pump that delivered the nicotine solution. Daily sessions were run for at least 10 days before the initiation of drug testing. Solutions of compounds of Example 2 and Example 5 were prepared fresh daily in Formulation 2B: 25% PEG400/5% Vit E TPGS/1% SLS/69% water with 0.5% Methocel) for oral dosing. Compound of Example 2 doses were administered in a counterbalanced design for testing 1 hr before each nicotine session. Every rat received all drug doses and vehicle in a randomly assigned order. The oral drug administrations were made twice per week.
Compound of Example 5 was tested in a study using 4 independent groups. Each group received either oral vehicle or 1 of the 3 doses of compound of Example 5 (5, 10 or 30 mg-eq/kg). […] The 5 mg/kg dose was ineffective.

In assay [5] the test system is male Sprague Dawley (SD) rats. Description: Rat cocaine cue reinstatement. The class given is in vivo. On the procedure:
Training of male Sprague Dawley (SD) rats had 3 separate stages. First, during self administration, animals were trained to lever press for cocaine with presentation of concomitant cues associated with drug delivery. Rats that reached criteria for addiction were included in the study. Afterward, during cue extinction, cocaine-cue dependent behavior was extinguished. Lastly, during cocaine cue reinstatement, the effect of compounds was tested on lever presses upon cue presentation (FIG. 2).
Rats were trained to self administer i.v. cocaine (0.35 mg/kg/injection) daily (Monday to Friday) in standard operant chambers with retractable levers (Coulbourn Instruments, PA). During the daily 2 hr session, rats received a 0.05 ml infusion of 0.35 mg/kg cocaine every time the active lever was pressed. A cue light and tone turned on for 2 sec together with activation of a pump that delivered the cocaine solution. Rats were required to maintain an infusion rate of ≧20+ per day for at least 10 days before being moved to extinction training.
During extinction sessions lever presses no longer produced cocaine infusion and cue light/tone presentation was absent. Rats received a maximum of 15 extinction sessions.
On the next day after reaching extinction criteria, rats were treated orally with vehicle (Formulation 2B: 25% PEG400/5% Vit E TPGS/1% SLS/69% water with 0.5% Methocel) or drug (compound of Example 2 or compound of Example 5) before the cue reinstatement session. Cue reinstatement began with a tone and cue light. This 2 hr session was identical to the self-administration session (cue light and tone present upon active lever press) except that no cocaine was delivered. The number of active lever presses was compared to extinction lever responding. This is considered a measure of reinstatement. The next day, rats were returned to extinction sessions for at least 2 or 3 more sessions. Rats then received a second and last reinstatement session with an opposite treatment to the one received on the first reinstatement session (vehicle or drug treatment). […] The light/tone presentation triggers this response and it is interpreted as a measure of reinstatement even though cocaine is not available.

Sequence of HMAO-A (P21397 whole entry): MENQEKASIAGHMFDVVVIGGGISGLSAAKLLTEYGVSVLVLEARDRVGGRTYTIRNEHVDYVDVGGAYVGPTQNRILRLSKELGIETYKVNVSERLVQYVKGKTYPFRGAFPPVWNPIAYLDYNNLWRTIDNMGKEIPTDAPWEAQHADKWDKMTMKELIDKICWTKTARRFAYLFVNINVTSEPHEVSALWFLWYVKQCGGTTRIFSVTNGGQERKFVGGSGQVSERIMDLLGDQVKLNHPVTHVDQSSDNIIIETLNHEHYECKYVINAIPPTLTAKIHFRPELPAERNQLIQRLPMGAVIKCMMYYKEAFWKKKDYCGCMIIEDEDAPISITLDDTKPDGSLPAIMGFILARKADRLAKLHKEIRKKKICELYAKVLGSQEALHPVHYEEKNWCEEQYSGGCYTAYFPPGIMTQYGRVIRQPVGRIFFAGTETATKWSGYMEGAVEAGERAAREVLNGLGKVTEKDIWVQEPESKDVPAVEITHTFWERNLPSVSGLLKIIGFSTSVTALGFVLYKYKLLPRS
Sequence of recombinant human ALDH2 (P05091 18-517): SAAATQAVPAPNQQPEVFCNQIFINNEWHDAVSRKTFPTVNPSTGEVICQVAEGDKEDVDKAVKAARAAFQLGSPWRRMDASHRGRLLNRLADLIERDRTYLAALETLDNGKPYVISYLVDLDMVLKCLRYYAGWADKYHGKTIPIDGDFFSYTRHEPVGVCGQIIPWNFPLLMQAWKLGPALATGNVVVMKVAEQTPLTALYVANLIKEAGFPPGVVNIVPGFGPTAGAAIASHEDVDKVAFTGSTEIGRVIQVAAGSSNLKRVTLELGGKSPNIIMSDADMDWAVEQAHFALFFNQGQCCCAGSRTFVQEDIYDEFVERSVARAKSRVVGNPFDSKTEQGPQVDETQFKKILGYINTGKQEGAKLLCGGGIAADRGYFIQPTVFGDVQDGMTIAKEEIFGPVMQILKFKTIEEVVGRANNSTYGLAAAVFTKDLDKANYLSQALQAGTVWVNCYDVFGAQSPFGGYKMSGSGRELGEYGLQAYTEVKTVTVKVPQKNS
Sequence of HMAO-B (P27338 whole entry): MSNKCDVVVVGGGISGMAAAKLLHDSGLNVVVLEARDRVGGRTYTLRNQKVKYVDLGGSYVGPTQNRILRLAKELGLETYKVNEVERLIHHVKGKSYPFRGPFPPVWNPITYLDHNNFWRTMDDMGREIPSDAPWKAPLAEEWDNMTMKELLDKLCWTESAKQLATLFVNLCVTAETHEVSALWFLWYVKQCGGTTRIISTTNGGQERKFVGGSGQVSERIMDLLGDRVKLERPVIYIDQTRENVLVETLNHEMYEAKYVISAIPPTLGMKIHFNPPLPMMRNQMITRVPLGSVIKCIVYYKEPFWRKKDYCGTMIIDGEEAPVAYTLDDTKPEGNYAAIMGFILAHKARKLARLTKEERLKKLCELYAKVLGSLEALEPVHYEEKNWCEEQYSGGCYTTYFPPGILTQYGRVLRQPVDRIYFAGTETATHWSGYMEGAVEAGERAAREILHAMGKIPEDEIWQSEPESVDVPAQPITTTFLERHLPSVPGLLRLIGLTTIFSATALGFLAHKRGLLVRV

In the case of `O=C(NCc1ccc(-c2cc[nH]c(=O)c2)cc1)c1c(F)cccc1Cl` [Compound 11, 2-chloro-6-fluoro-N-(4-(2-oxo-1,2-dihydropyridin-4-yl)benzyl)benzamide], the pIC50 in assay [1] was below 3.89; in assay [2] it was below 3.89; in assay [3] it was 6.42.

`Cn1ccc(-c2ccc(CNC(=O)c3c(Cl)cccc3Cl)cc2)cc1=O` [Compound 9, 2,6-dichloro-N-(4-(1-methyl-2-oxo-1,2-dihydropyridin-4-yl)benzyl)benzamide]: the pIC50 in assay [1] was below 3.89; in assay [2], below 3.89; in assay [3], 5.68.

Turning to `O=C(NCc1ccc(-c2cc[nH]c(=O)c2)cc1)c1c(F)ccc(F)c1Cl` [Compound 7, 2-chloro-3,6-difluoro-N-(4-(2-oxo-1,2-dihydropyridin-4-yl)benzyl)benzamide], the pIC50 in assay [1] is below 3.89; in assay [2] it was below 3.89; in assay [3], 6.33.

In the case of `O=C(NCc1ccc(-c2cc[nH]c(=O)c2)cc1)c1cccc(F)c1Cl` [Compound 3, 2-chloro-3-fluoro-N-(4-(2-oxo-1,2-dihydropyridin-4-yl)benzyl)benzamide], the pIC50 in assay [1] was below 3.89; in assay [2], below 3.89; in assay [3], 6.67.

With `Cc1cccc(C)c1C(=O)NCc1ccc(-c2cc[nH]c(=O)c2)cc1` [Compound 5, 2,6-dimethyl-N-(4-(2-oxo-1,2-dihydropyridin-4-yl)benzyl)benzamide], the figures for the pIC50 in assay [1], in assay [2] and in assay [3] were below 3.89, below 3.89 and 6.78, respectively.

For the compound `O=C(NCc1ccc(-c2cc[nH]c(=O)c2)cc1)c1c(F)cccc1F` [Compound 10, 2,6-difluoro-N-(4-(2-oxo-1,2-dihydropyridin-4-yl)benzyl)benzamide], the results for the pIC50 in assay [1], in assay [2] and in assay [3] were below 3.89, below 3.89 and 6.05, respectively.

Regarding `COCCOc1cc(Cl)c(C(=O)NCc2ccc(-c3cc[nH]c(=O)c3)cc2)c(Cl)c1` [Compound 1, 2,6-dichloro-4-(2-methoxyethoxy)-N-(4-(2-oxo-1,2-dihydropyridin-4-yl)benzyl)benzamide], the pIC50 is below 3.89 in assay [1], below 3.89 in assay [2] and 7.20 in assay [3].

In the case of `Cc1cc(-c2ccc(CNC(=O)c3c(Cl)cccc3Cl)cc2)cc(=O)[nH]1` [Compound 6, 2,6-dichloro-N-[4-(6-methyl-2-oxo-1,2-dihydro-pyridin-4-yl)-benzyl]-benzamide], the figures for the negative logarithm of the IC50 (pIC50) in assay [1], in assay [2] and in assay [3] were below 3.89, below 3.89 and 5.95, respectively.

`O=C(NCc1ccc(-c2cc(=O)[nH]cc2F)cc1)c1c(Cl)cccc1Cl` [Compound 13, 2,6-dichloro-N-(4-(5-fluoro-2-oxo-1,2-dihydropyridin-4-yl)benzyl)benzamide]: the pIC50 is below 3.89 in assay [1], below 3.89 in assay [2] and 7.60 in assay [3].

In the case of `Cc1cc(CNC(=O)c2c(Cl)cccc2Cl)ccc1-c1cc[nH]c(=O)c1` [Compound 8, 2,6-dichloro-N-(3-methyl-4-(2-oxo-1,2-dihydropyridin-4-yl)benzyl)benzamide], the pIC50 in assay [1] was below 3.89; in assay [2], below 3.89; in assay [3] it was 6.32.

As for `O=C(NCc1ccc(-c2cc[nH]c(=O)c2)cc1)c1c(Cl)cccc1Cl` [Compound 2, 2,6-dichloro-N-[4-(2-oxo-1,2-dihydro-pyridin-4-yl)-benzyl]-benzamide], the pIC50 is below 3.89 in assay [1], below 3.89 in assay [2] and 6.99 in assay [3]. In addition, the “effect on number of nicotine infusions compared to vehicle” value in assay [4] (1 mg/kg oral) and in assay [4] (5 mg/kg oral) was “without effect” in each case. Also, the “inhibition of number of nicotine infusions compared to vehicle” value turned out to be 26% in assay [4] (10 mg/kg oral), 28% in assay [4] (30 mg/kg oral) and 31% in assay [4] (60 mg/kg oral). The “reduction of cocaine cue-induced reinstatement (lever presses) compared to vehicle” value in assay [5] (5 mg/kg oral) is 69%; in assay [5] (10 mg/kg oral) it was 72%; in assay [5] (30 mg/kg oral), 86%.

`O=C(NCc1ccc(-c2cc[nH]c(=O)c2)cc1F)c1c(Cl)cccc1Cl` [Compound 12, 2,6-dichloro-N-(2-fluoro-4-(2-oxo-1,2-dihydropyridin-4-yl)benzyl)benzamide]: the pIC50 is below 3.89 in assay [1], below 3.89 in assay [2] and 6.52 in assay [3].

For the compound `Cc1cccc(Cl)c1C(=O)NCc1ccc(-c2cc[nH]c(=O)c2)cc1` [Compound 4, 2-chloro-6-methyl-N-(4-(2-oxo-1,2-dihydropyridin-4-yl)benzyl)benzamide], the pIC50 in assay [1] was below 3.89; in assay [2] it was below 3.89; in assay [3] it was 7.64.
